Results published in the NIST ThermoML archive (doi:10.1016/j.tca.2006.05.016).

What was measured:
[1] = molar heat capacity at constant pressure; details: 101.33 kPa, Vacuum adiabatic calorimetry
[2] = Crystal 2; Adiabatic calorimetry
[3] = Molar enthalpy of transition or fusion; details: Crystal 2; Adiabatic calorimetry

O.O=C([O-])[C@H](O)[C@@H](O)CO.[Na+] [sodium (2R,3S)-2,3,4-trihydroxybutanoate hydrate]
[1]
Details | molar heat capacity at constant pressure [J/K/mol]
77.95 K, Crystal 2 | 75
79.37 K, Crystal 2 | 76.72
81.36 K, Crystal 2 | 79.56
83.91 K, Crystal 2 | 84.79
86.36 K, Crystal 2 | 87.68
88.76 K, Crystal 2 | 90.45
91.09 K, Crystal 2 | 93.27
93.36 K, Crystal 2 | 96.08
95.59 K, Crystal 2 | 98.2
97.78 K, Crystal 2 | 100.57
99.92 K, Crystal 2 | 102.71
102.04 K, Crystal 2 | 105.14
104.12 K, Crystal 2 | 107.69
106.16 K, Crystal 2 | 109.95
108.18 K, Crystal 2 | 111.9
110.17 K, Crystal 2 | 113.31
112.13 K, Crystal 2 | 114.95
114.07 K, Crystal 2 | 116.19
115.97 K, Crystal 2 | 117.54
117.86 K, Crystal 2 | 118.71
119.77 K, Crystal 2 | 120.32
121.62 K, Crystal 2 | 121.99
123.51 K, Crystal 2 | 123.24
125.33 K, Crystal 2 | 124.71
127.14 K, Crystal 2 | 125.29
128.86 K, Crystal 2 | 126.35
130.68 K, Crystal 2 | 127.87
132.5 K, Crystal 2 | 128.63
134.24 K, Crystal 2 | 131.67
135.97 K, Crystal 2 | 132.68
137.73 K, Crystal 2 | 133.19
139.48 K, Crystal 2 | 134.44
141.23 K, Crystal 2 | 136.19
142.86 K, Crystal 2 | 137.59
144.61 K, Crystal 2 | 138.32
146.3 K, Crystal 2 | 140.73
147.99 K, Crystal 2 | 140.29
149.61 K, Crystal 2 | 141.98
151.3 K, Crystal 2 | 143.95
152.96 K, Crystal 2 | 145.69
154.61 K, Crystal 2 | 147.47
156.3 K, Crystal 2 | 148.86
157.86 K, Crystal 2 | 150.83
159.54 K, Crystal 2 | 152.22
161.17 K, Crystal 2 | 153.62
162.73 K, Crystal 2 | 154.86
164.35 K, Crystal 2 | 156.25
165.91 K, Crystal 2 | 156.39
167.53 K, Crystal 2 | 158.29
169.09 K, Crystal 2 | 159.91
172.12 K, Crystal 2 | 160.63
176.29 K, Crystal 2 | 162.82
180.3 K, Crystal 2 | 165.02
184.22 K, Crystal 2 | 166.35
188.18 K, Crystal 2 | 168.27
191.97 K, Crystal 2 | 170.46
195.83 K, Crystal 2 | 171.25
199.61 K, Crystal 2 | 172.21
203.33 K, Crystal 2 | 173.89
207.04 K, Crystal 2 | 175.99
210.68 K, Crystal 2 | 177.22
214.32 K, Crystal 2 | 179.68
217.96 K, Crystal 2 | 181.35
221.51 K, Crystal 2 | 183.72
225 K, Crystal 2 | 185.96
228.51 K, Crystal 2 | 187.72
231.95 K, Crystal 2 | 189.41
235.39 K, Crystal 2 | 192.26
238.79 K, Crystal 2 | 194.53
242.04 K, Crystal 2 | 198.57
245.39 K, Crystal 2 | 201.48
248.7 K, Crystal 2 | 203.61
252.08 K, Crystal 2 | 206.16
255.46 K, Crystal 2 | 208.87
258.7 K, Crystal 2 | 210.99
262.01 K, Crystal 2 | 212.53
265.32 K, Crystal 2 | 215.68
268.57 K, Crystal 2 | 217.65
271.77 K, Crystal 2 | 220.53
275 K, Crystal 2 | 224.17
278.12 K, Crystal 2 | 228.04
281.3 K, Crystal 2 | 231.99
284.42 K, Crystal 2 | 237.12
287.53 K, Crystal 2 | 241.14
290.52 K, Crystal 2 | 246.12
293.51 K, Crystal 2 | 256.15
296.36 K, Crystal 2 | 269.06
299.17 K, Crystal 2 | 287.71
301.89 K, Crystal 2 | 317.39
304.46 K, Crystal 2 | 360.73
306.87 K, Crystal 2 | 401.98
309.17 K, Crystal 2 | 438.39
311.36 K, Crystal 2 | 491.36
318.51 K, Crystal 1 | 314.18
320.91 K, Crystal 1 | 318.35
323.31 K, Crystal 1 | 325.56
325.78 K, Crystal 1 | 328.61
328.18 K, Crystal 1 | 335.06
330.58 K, Crystal 1 | 339.72
332.99 K, Crystal 1 | 345.04
335.32 K, Crystal 1 | 351.32
337.66 K, Crystal 1 | 358.41
340.01 K, Crystal 1 | 364.19
342.27 K, Crystal 1 | 369.83
344.55 K, Crystal 1 | 376.43
346.82 K, Crystal 1 | 381.43
349.03 K, Crystal 1 | 386.89
351.17 K, Crystal 1 | 394.15
353.25 K, Crystal 1 | 400.12
355.33 K, Crystal 1 | 406.54
357.27 K, Crystal 1 | 412.66
359.16 K, Crystal 1 | 419.26
360.91 K, Crystal 1 | 423.77
362.53 K, Crystal 1 | 426.99
364.09 K, Crystal 1 | 434.07
365.32 K, Crystal 1 | 439.39
366.56 K, Crystal 1 | 441.96
367.66 K, Crystal 1 | 446.63
368.51 K, Crystal 1 | 453.39

Details | Molar enthalpy of transition or fusion [kcal/mol] | Triple point temperature [K]
[2] | – | 311.4
[3] | 1.37 | –
